According to ChEMBL document CHEMBL1201862, “PubChem BioAssay data set” (2004):
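Five concentrations, 48 hours, 96-well plates. At the GI50, growth is halved.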 Active and inactive are the calls of the source. No stated cut-off is given here; in the data, active = GI50 up to about 1.1 µM and inactive = higher.

Legend:
Experiment in all cases: growth of human tumour cells (NCI), 48 h
SN12C = tested on: SN12C
COLO 205 = tested on: COLO 205
OVCAR-4 = tested on: OVCAR-4
UO-31 = tested on: UO-31
Malme-3M = tested on: Malme-3M
RXF 393 = tested on: RXF 393
NCI-H23 = tested on: NCI-H23
EKVX = tested on: EKVX
KM12 = tested on: KM12
DLD-1 = tested on: DLD-1
SF-268 = tested on: SF-268
ACHN = tested on: ACHN
OVCAR-8 = tested on: OVCAR-8
786-0 = tested on: 786-0
UACC-62 = tested on: UACC-62
IGROV-1 = tested on: IGROV-1

Measured: GI50

COCCCNC(=O)C1C(=O)N(CCCOC)C(=O)/C1=N\N (configuration not stated)
inactive: SN12C > 100 µM | COLO 205 > 100 µM | OVCAR-4 > 100 µM | UO-31 > 100 µM | Malme-3M > 100 µM | RXF 393 > 100 µM | NCI-H23 > 100 µM | EKVX > 100 µM | KM12 > 100 µM | DLD-1 > 100 µM | SF-268 > 100 µM | ACHN > 100 µM | OVCAR-8 > 100 µM | 786-0 > 100 µM | UACC-62 > 100 µM

OCC(O)C(O)C(O)C(O)c1nnn[nH]1 (configuration not stated)
inactive: SN12C > 100 µM | COLO 205 > 100 µM | IGROV-1 > 100 µM | OVCAR-4 > 100 µM | UO-31 > 100 µM | Malme-3M > 100 µM | NCI-H23 > 100 µM | EKVX > 100 µM | KM12 > 100 µM | DLD-1 > 100 µM | SF-268 > 100 µM | ACHN > 100 µM | OVCAR-8 > 100 µM | 786-0 > 100 µM | UACC-62 > 100 µM

Cc1ccc(NC(=O)c2cc3cc(/N=N/c4ccccc4C(=O)O)ccc3oc2=O)cc1
inactive: SN12C 54.6 µM | COLO 205 35.3 µM | IGROV-1 41.2 µM | UO-31 30.1 µM | Malme-3M 43.2 µM | RXF 393 51.4 µM | NCI-H23 32.1 µM | EKVX 46.1 µM | KM12 44.5 µM | DLD-1 41 µM | ACHN 53.2 µM | OVCAR-8 58.7 µM | 786-0 94.6 µM | UACC-62 24.6 µM

CCCCCCCCCCCCCCCC(=O)OCC1OC(n2cc(F)c(=O)[nH]c2=O)C(N)C(O)C1O (configuration not stated)
inactive: SN12C 18.2 µM | COLO 205 18.5 µM | IGROV-1 > 10 µM | OVCAR-4 15.8 µM | UO-31 15.6 µM | Malme-3M 19.4 µM | NCI-H23 19.7 µM | EKVX 18.8 µM | KM12 18.6 µM | DLD-1 20.6 µM | SF-268 19.5 µM | ACHN 18.8 µM | OVCAR-8 20.5 µM | 786-0 19.1 µM | UACC-62 16.2 µM

CCN1C[C@]2(C)CC[C@H](O)C34C1C(C[C@@H]32)[C@@]1(O)CC[C@H]2C[C@@H]4[C@@H]1[C@H]2O
inactive: SN12C > 100 µM | COLO 205 > 100 µM | IGROV-1 > 100 µM | OVCAR-4 > 100 µM | UO-31 > 100 µM | Malme-3M > 100 µM | RXF 393 > 100 µM | NCI-H23 > 100 µM | KM12 > 100 µM | DLD-1 > 100 µM | SF-268 > 100 µM | ACHN > 100 µM | OVCAR-8 > 100 µM | 786-0 > 100 µM | UACC-62 > 100 µM

CC(O)C(C(=O)O)N(CC1(O)OCC(O)C(O)C1O)N=O (configuration not stated)
inactive: COLO 205 > 100 µM | IGROV-1 > 100 µM | UO-31 > 100 µM | Malme-3M > 100 µM | RXF 393 > 100 µM | NCI-H23 > 100 µM | EKVX > 100 µM | KM12 > 100 µM | DLD-1 > 100 µM | ACHN > 100 µM | OVCAR-8 > 100 µM | 786-0 > 100 µM | UACC-62 > 100 µM

O=C(OCc1ccccc1C1CSCSC1)c1cc(C(=O)OCc2ccccc2C2CSCSC2)c(C(=O)OCc2ccccc2C2CSCSC2)cc1C(=O)OCc1ccccc1C1CSCSC1
inactive: SN12C > 100 µM | COLO 205 > 100 µM | IGROV-1 > 100 µM | OVCAR-4 > 100 µM | UO-31 > 100 µM | Malme-3M > 100 µM | RXF 393 > 100 µM | NCI-H23 > 100 µM | KM12 > 100 µM | DLD-1 > 100 µM | SF-268 > 100 µM | ACHN > 100 µM | OVCAR-8 > 100 µM | 786-0 65 µM | UACC-62 > 100 µM
